Data reported in patent publication EP4385979A1 (Grünenthal GmbH, priority 2022, dated 2024).

Each compound was assayed against T1, human NaV1.8 (Homo sapiens, UniProt Q9Y5Y9) (assay: Electrophysiology: voltage-clamp recordings, whole-cell patch clamp on Qube384 automated platform). Settings: HEK-NaV1.8 (NM 006514.1) with b3 recombinant cell line, multi hole plates, ambient room temperature, read-out: Potency category (human NaV1.8 IC50).
T1 construct: expressed in transfected cells; host or cells: HEK
T1 sequence (Q9Y5Y9 whole entry): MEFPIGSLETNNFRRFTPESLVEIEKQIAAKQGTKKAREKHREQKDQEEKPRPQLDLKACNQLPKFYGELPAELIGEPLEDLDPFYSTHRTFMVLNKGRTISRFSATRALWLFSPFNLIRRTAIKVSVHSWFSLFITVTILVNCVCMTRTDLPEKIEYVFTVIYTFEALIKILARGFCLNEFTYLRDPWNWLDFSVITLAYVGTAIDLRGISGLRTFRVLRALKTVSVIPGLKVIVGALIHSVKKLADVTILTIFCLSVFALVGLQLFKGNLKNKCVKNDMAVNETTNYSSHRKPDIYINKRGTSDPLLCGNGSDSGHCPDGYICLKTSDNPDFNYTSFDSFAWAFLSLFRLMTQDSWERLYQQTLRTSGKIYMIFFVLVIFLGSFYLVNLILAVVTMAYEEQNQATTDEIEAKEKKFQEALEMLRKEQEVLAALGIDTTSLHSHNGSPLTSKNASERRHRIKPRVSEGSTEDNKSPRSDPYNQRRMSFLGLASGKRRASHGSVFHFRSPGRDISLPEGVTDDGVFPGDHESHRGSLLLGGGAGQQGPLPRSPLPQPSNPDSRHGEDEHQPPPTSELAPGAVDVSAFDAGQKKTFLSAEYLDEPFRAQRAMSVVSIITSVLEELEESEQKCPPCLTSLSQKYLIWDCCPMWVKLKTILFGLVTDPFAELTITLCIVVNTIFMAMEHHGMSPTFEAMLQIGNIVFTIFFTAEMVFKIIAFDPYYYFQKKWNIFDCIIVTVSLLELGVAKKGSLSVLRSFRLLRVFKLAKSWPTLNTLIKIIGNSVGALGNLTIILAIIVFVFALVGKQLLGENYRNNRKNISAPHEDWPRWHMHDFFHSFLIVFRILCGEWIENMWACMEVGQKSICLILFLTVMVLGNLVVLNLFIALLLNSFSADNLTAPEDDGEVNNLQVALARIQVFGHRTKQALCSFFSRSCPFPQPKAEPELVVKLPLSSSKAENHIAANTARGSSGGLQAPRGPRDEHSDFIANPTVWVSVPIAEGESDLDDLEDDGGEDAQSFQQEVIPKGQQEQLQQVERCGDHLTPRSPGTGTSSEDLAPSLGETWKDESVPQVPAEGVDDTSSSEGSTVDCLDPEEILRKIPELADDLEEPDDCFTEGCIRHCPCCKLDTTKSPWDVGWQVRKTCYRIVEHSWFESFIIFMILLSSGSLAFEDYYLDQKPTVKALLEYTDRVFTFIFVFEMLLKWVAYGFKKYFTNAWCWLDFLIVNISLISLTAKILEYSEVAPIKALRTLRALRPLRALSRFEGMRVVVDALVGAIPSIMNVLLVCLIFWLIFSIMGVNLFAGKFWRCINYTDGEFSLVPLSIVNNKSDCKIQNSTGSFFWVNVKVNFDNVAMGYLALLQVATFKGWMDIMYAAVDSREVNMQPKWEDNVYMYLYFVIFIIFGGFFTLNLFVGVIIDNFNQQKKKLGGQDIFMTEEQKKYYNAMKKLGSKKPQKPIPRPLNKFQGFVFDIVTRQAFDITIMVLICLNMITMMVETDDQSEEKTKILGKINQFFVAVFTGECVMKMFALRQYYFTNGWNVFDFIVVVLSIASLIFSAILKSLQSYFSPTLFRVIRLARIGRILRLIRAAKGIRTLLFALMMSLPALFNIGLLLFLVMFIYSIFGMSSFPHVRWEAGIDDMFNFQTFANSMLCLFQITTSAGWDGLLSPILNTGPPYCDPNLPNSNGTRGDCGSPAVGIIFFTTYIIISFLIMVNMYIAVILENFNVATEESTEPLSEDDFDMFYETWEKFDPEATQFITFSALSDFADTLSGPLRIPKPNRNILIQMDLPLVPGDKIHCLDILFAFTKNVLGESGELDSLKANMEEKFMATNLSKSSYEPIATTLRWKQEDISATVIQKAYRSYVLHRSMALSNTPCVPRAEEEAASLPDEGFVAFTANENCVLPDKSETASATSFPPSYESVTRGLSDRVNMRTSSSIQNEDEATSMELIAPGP
Format: cell-based
Experimental: Electrophysiology: Voltage-Clamp recordings
The following NaV1.8 recombinant cell line was used for recordings: HEK-NaV1.8 (NM 006514.1) with b3 (NM_018400.3).
Sodium currents were measured using the patch clamp technique in the whole-cell configuration using the Qube384 (Sophion A/S, Copenhagen, Denmark) automated voltage clamp platform. "Multi hole" plates were used for the cell line expressing NaV1.8 while "single hole" plates were used for the recombinant cell lines expressing the other subtypes. Appropriate filters (for minimum seal resistance and minimum current size) and series resistance compensation (for high quality sodium channel recordings) were applied. Data was collected at ambient room temperature.
The recording […] solution contained (in mM): NaCl 145 mM, KCl 4 mM, CaCl2 2 mM, MgCl2 1 mM, HEPES 10 mM, Glucose 10 mM, pH 7.4 (NaOH). The […] recording solution contained (in mM): CsF 120 mM, CsCl 20 mM, NaCl 10 mM, EGTA 10 mM, HEPES 10 mM, pH 7.2 (CsOH). Currents were recorded at 25 kHz sampling frequency and filtered at 5 kHz. Series resistance compensation was applied at 65%.
Vehicle (VEH) is the control condition where cells are exposed to 0.3 % DMSO without compound. All runs include VEH controls being exposed to the same voltage protocols to assess non-compound related phenomena such as run down and then used to isolate compound dependent effects on currents.
To check for state-dependence inhibition, the following voltage-sequence was applied every 20 seconds: From a resting membrane potential of-120 mV, the first test pulse (P1; 20 ms to -10 mV) was applied to check for channels in the Resting State followed by a brief recovery (20 ms to -120 mV), then holding the membrane voltage to V1/2 (4 seconds at voltage to obtain half the channel at Rest and half Inactivated) with a subsequent second test pulse (P2; 20 ms to -10 mV) to check for channels in the Inactivated State, followed by another brief recovery (20 ms to -120 mV) and a final third test pulse (P3; 20 ms to -10 mV) to check for recovered channels.
To check for frequency-dependent inhibition, a 10 Hz protocol and a 20 Hz protocol were applied; namely,
From a resting membrane potential of -120 mV, 40-pulses (10 ms to -10 mV) was applied at 10 Hz (at 100 ms between pulses) and then at 20 Hz (at 50 ms between pulses). Each parameter was recorded (P1, P2, P3, P40 from 10Hz and P40 from 20Hz) during a control period (lasting ~ 5 minutes) when establishing the baseline and during compound period (lasting ~ 12 minutes) when test compound (or vehicle) was applied. For each parameter, the value at the end of the compound period was normalized to the vehicle baseline; as follows Normalized Inhibition (NormCPD) = (CPD Valueend CPD period)/(VEH Valueend Control Period) [formula]
To adjust for any variance in the Na^+ current signal during the compound period (owing to cumulative inactivation independent of compound or shifts in biophysics over time), a dedicated segment of the recording wells in each 384 plate were dedicated to having only vehicle exposure. These vehicle-only recordings were used to correct for any apparent "run-up" or "run-down" in the experiment. Normalized Inhibition (NormVEH) = (VEH Valueend CPD period)/(VEH Valueend Control Period) [formula]
The adjusted inhibition was calculated as follows: % Inhibitioncorrected = 100 × (NormCPD −NormVEH)/(100−NormVEH) [formula]
Percent inhibition was determined and IC50 values were calculated using a 4 parameter logistic model within XLFit Software (IDBS, Boston MA): % Inhibitioncorrected = A + ((B−A))/((1 + (((x)/(C)))^D) [formula] where A and B are the maximal and minimum inhibition respectively, C is the IC50 concentration and D is the (Hill) slope.

Compound | IC50 [nM]
CC12CC(Cn3nc(C4CC4)c(C(F)(F)F)c3C(=O)Nc3ccnc(S(C)(=O)=O)c3)(CO1)C2 [Example 23, 3-cyclopropyl-1-((1-methyl-2-oxabicyclo[2.1.1]hexan-4-yl)methyl)-N-(2-(methylsulfonyl)pyridin-4-yl)-4-(trifluoromethyl)-1H-pyrazole-5-carboxamide] | 100 to 1000
CS(=O)(=O)c1cc(NC(=O)c2c(C(F)(F)F)c(C3CC3)nn2CC23CC(CO2)C3)ccn1 [Example 24, 1-((2-oxabicyclo[2.1.1]hexan-1-yl)methyl)-3-cyclopropyl-N-(2-(methylsulfonyl)pyridin-4-yl)-4-(trifluoromethyl)-1H-pyrazole-5-carboxamide] | 100 to 1000
Cc1c(C(C)(F)F)nn(CC23CC(C(F)(F)F)(C2)C3)c1C(=O)Nc1ccnc(S(C)(=O)=O)c1 [Example 25, 3-(1,1-difluoroethyl)-4-methyl-N-(2-(methylsulfonyl)pyridin-4-yl)-1-((3-(trifluoromethyl)bicyclo[1.1.1]pentan-1yl)methyl)-1H-pyrazole-5-carboxamide] | ≤ 100
Cc1nn(CC23CC(C(F)(F)F)(C2)C3)c(C(=O)Nc2ccnc(S(C)(=O)=O)c2)c1C(F)(F)F [Example 26, 3-methyl-N-(2-(methylsulfonyl)pyridin-4-yl)-4-(trifluoromethyl)-1-((3-(trifluoromethyl)bicyclo[1.1.1]pentan-1yl)methyl)-1H-pyrazole-5-carboxamide] | 100 to 1000
Cc1c(C(F)(F)F)nn(CC23CC(C(F)(F)F)(C2)C3)c1C(=O)Nc1ccnc(S(C)(=O)=O)c1 [Example 27, 4-methyl-N-(2-(methylsulfonyl)pyridin-4-yl)-3-(trifluoromethyl)-1-((3-(trifluoromethyl)bicyclo[1.1.1]pentan-1yl)methyl)-1H-pyrazole-5-carboxamide] | 100 to 1000
CS(=O)(=O)c1cc(NC(=O)c2c(C(F)(F)F)c(C3CC3)nn2CC23CC(C(F)(F)F)(C2)C3)ccn1 [Example 28, 3-cyclopropyl-N-(2-(methylsulfonyl)pyridin-4-yl)-4-(trifluoromethyl)-1-((3-(trifluoromethyl)bicyclo[1.1.1]pentan-1yl)methyl)-1H-pyrazole-5-carboxamide] | ≤ 100
NS(=O)(=O)c1cccc(NC(=O)c2c(C(F)(F)F)cnn2CC23CC(CO2)C3)c1 [Example 30, 1-((2-oxabicyclo[2.1.1]hexan-1-yl)methyl)-N-(3-sulfamoylphenyl)-4-(trifluoromethyl)-1H-pyrazole-5-carboxamide] | 1000 to 10000
CC12CC(Cn3ncc(C(F)(F)F)c3C(=O)Nc3cccc(S(N)(=O)=O)c3)(CO1)C2 [Example 31, 1-((1-methyl-2-oxabicyclo[2.1.1]hexan-4-yl)methyl)-N-(3-sulfamoylphenyl)-4-(trifluoromethyl)-1H-pyrazole-5-carboxamide] | 1000 to 10000
NS(=O)(=O)c1cccc(NC(=O)c2c(C(F)(F)F)cnn2CC23CC(C2)C3)c1 [Example 32, 1-(bicyclo [1.1.1]pentan-1-ylmethyl)-N-(3-sulfamoylphenyl)-4-(trifluoromethyl)-1H-pyrazole-5-carboxamide] | 100 to 1000
Cc1nn(CC23CC(CO2)C3)c(C(=O)Nc2cccc(S(N)(=O)=O)c2)c1C(F)(F)F [Example 33, 1-((2-oxabicyclo [2.1.1]hexan-1-yl)methyl)-3-methyl-N-(3-sulfamoylphenyl)-4-(trifluoromethyl)-1H-pyrazole-5-carboxamide] | 1000 to 10000
NS(=O)(=O)c1cccc(NC(=O)c2c(C(F)(F)F)cnn2CC2CC3(CC3)C2)c1 [Example 34, 1-(spiro[2.3]hexan-5-ylmethyl)-N-(3-sulfamoylphenyl)-4-(trifluoromethyl)-1H-pyrazole-5-carboxamide] | 100 to 1000
NS(=O)(=O)c1cccc(NC(=O)c2c(C(F)(F)F)cnn2CC23CCC(C2)C3)c1 [Example 35, 1-(bicyclo[2.1.1]hexan-1-ylmethyl)-N-(3-sulfamoylphenyl)-4-(trifluoromethyl)-1H-pyrazole-5-carboxamide] | ≤ 100
Cc1nn(CC23CCC(C2)C3)c(C(=O)Nc2ccc(F)c(C(N)=O)c2)c1C(F)(F)F [Example 36, 1-(bicyclo[2.1.1]hexan-1-ylmethyl)-N-(3-carbamoyl-4-fluorophenyl)-3-methyl-4-(trifluoromethyl)-1H-pyrazole-5-carboxamide] | ≤ 100
NC(=O)c1cc(NC(=O)c2c(C(F)(F)F)cnn2CC23CC(CO2)C3)ccc1F [Example 37, 1-((2-oxabicyclo[2.1.1]hexan-1-yl)methyl)-N-(3-carbamoyl-4-fluorophenyl)-4-(trifluoromethyl)-1H-pyrazole-5-carboxamide] | 1000 to 10000
NC(=O)c1cc(NC(=O)c2c(C(F)(F)F)cnn2CC23CC(C2)C3)ccc1F [Example 38, 1-(bicyclo[1.1.1]pentan-1-ylmethyl)-N-(3-carbamoyl-4-fluorophenyl)-4-(trifluoromethyl)-1H-pyrazole-5-carboxamide] | 1000 to 10000
Cc1nn(CC23CC(CO2)C3)c(C(=O)Nc2ccc(F)c(C(N)=O)c2)c1C(F)(F)F [Example 39, 1-((2-oxabicyclo[2.1.1]hexan-1-yl)methyl)-N-(3-carbamoyl-4-fluorophenyl)-3-methyl-4-(trifluoromethyl)-1H-pyrazole-5-carboxamide] | 100 to 1000
Cc1nn(CC23CC(C2)C3)c(C(=O)Nc2ccc(F)c(C(N)=O)c2)c1C(F)(F)F [Example 40, 1-(bicyclo[1.1.1]pentan-1-ylmethyl)-N-(3-carbamoyl-4-fluorophenyl)-3-methyl-4-(trifluoromethyl)-1H-pyrazole-5-carboxamide] | 100 to 1000
NC(=O)c1cc(NC(=O)c2c(C(F)(F)F)cnn2CC2CC3(CC3)C2)ccc1F [Example 41, N-(3-carbamoyl-4-fluorophenyl)-1-(spiro[2.3]hexan-5-ylmethyl)-4-(trifluoromethyl)-1H-pyrazole-5-carboxamide] | 100 to 1000
NC(=O)c1cc(NC(=O)c2c(C(F)(F)F)cnn2CC23CCC(C2)C3)ccc1F [Example 42, 1-(bicyclo[2.1.1]hexan-1-ylmethyl)-N-(3-carbamoyl-4-fluorophenyl)-4-(trifluoromethyl)-1H-pyrazole-5-carboxamide] | ≤ 100
CS(=O)(=O)n1cc(NC(=O)c2c(C(F)(F)F)cnn2CC23CC(C2)C3)cn1 [Example 47, 1-(bicyclo [1.1.1]pentan-1-ylmethyl)-N-(1-(methylsulfonyl)-1H-pyrazol-4-yl)-4-(trifluoromethyl)-1H-pyrazole-5-carboxamide] | 1000 to 10000
CS(=O)(=O)n1cc(NC(=O)c2c(C(F)(F)F)cnn2CC2CC3(CC3)C2)cn1 [Example 48, N-(1-(methylsulfonyl)-1H-pyrazol-4-yl)-1-(spiro[2.3]hexan-5-ylmethyl)-4-(trifluoromethyl)-1H-pyrazole-5-carboxamide] | 1000 to 10000
CS(=O)(=O)n1cc(NC(=O)c2c(C(F)(F)F)cnn2CC23CCC(C2)C3)cn1 [Example 49, 1-(bicyclo[2.1.1]hexan-1ylmethyl)-N-(1-(methylsulfonyl)-1H-pyrazol-4-yl)-4-(trifluoromethyl)-1H-pyrazole-5-carboxamide] | 100 to 1000
